From patent US20150038435A1, “N-TERMINALLY MODIFIED OLIGOPEPTIDES AND USES THEREOF” (Novo Nordisk A/S, priority 2012, published 2015)
pKi: −log10 of the molar value. *: point of attachment. Decanoyl = CCCCCCCCCC(=O)*

What was measured:
Chymotrypsin = assay: Inhibition of enzymatic degradation of a chromogenic substrate (Example 202); assay type: biochemical; conditions: substrate N-succinyl-Ala-Ala-Pro-Phe-p-Nitroanilide
Excerpt: The use of chromogenic substrates to monitor activity of proteolytic enzymes is known in the field (for example DelMar, E. G., et al., Anal. Biochem., 99, 316-320, (1979)). For example, N-succinyl-Ala-Ala-Pro-Phe-p-Nitroanilide is commonly used substrate for measuring chymotrypsin activity. Enzymatic cleavage of 4-nitroanilide substrates yields 4-nitroaniline (yellow color under alkaline conditions).
An assay following the increase in absorbance at 395 nm as a function of time was established in 96 well format using Varioskan Flash Multimode Meter (Thermo Scientific). Each well contained 70 μl of Dulbecco's phosphate buffer saline (Invitrogen catalogue #14190-094), 10 μl of N-succinyl-Ala-Ala-Pro-Phe-p-Nitroanilide (Sigma cat# S 7388) in DMSO (different concentrations were used in order to obtain the inhibition constant), 10 μl of N-terminally acylated peptide or oligopeptide of the invention in varying concentration and 10 μl of a stock solution of an enzyme (chymotrypsin, trypsin, elastase, etc.). The incubations were performed at 37° C. Absorbance at 395 nm was measured immediately after addition of the enzyme to the 96 well plate and also every minute for the next 80 minutes. The concentration of the enzyme was optimized to allow determination of slopes for the time course of initial absorbance increase with and without added inhibitors. The slopes were determined by linear regression of the linear part of the fluorescence trace (for example, the first 10 min of the reaction). Each assay was performed in duplicate and average of the two traces was included in the calculations. The relative effect of N-terminally acylated peptide or oligopeptides of the invention on enzymatic degradation of N-succinyl-Ala-Ala-Pro-Phe-p-Nitroanilide was obtained by comparison of the slopes achieved by the same concentration of the N-terminally acylated peptide or oligopeptides. […] This was done by plotting the slopes achieved with different concentrations of the N-terminally acylated peptide or oligopeptides of the invention as a function of their concentrations and fitting the experimental results using, for example, sigmoidal logistic regression (2 parameters, Sigma Plot v 11). Inhibition constants for the interaction between the N-terminally acylated peptide or oligopeptides of the invention and proteolytic enzymes were also obtained by performing the assay described above with varying concentrations of the inhibitor and substrate and analyzing the results, for example, by double reciprocal transformation as known to the person skilled in the art and described for example in Hubalek, F. et al., J. Med. Chem. 47, 1760-1766 (2004).

[1] = Hydrophobicity: retention time during reverse phase HPLC; assay type: physicochemical; conditions: Acquity CSH C18; pH 7.2 buffer/CH3CN gradient; 40° C.
Excerpt: The retention time (RT) during reverse phase HPLC was taken as a measure of hydrophobicity of an N-terminally modified peptide or oligopeptide of the invention, where the connection is: The longer the RT, the more hydrophobic N-terminally modified peptide or oligopeptide. The following running conditions were applied during HPLC analysis:
Buffer B: 70% (v/v) aq. CH3CN

Substance: N-decanoyl-Ala-Ala-Pro-Phe-OH (Decanoyl-AAPF-OH) [Example 33]
- pKi (Chymotrypsin): 3.07
- RT (retention time during reverse phase HPLC as a measure of hydrophobicity) [1]: 4.93 min
